Measured values from patent US12728168B2, “Anti-CEA antibody-exatecan analog conjugate and pharmaceutical use thereof” (JIANGSU HENGRUI MEDICINE CO., LTD., priority 2019, dated 2026).

What was measured:
[1] = system: SK-BR-3 tumor cells (human breast cancer cells); experiment: Inhibition of in vitro proliferation of SK-BR-3 cells (CTG); assay type: cell-based; details: 6 days of culture
Protocol: (§1) This experiment was intended to test the inhibitory activity of the pharmaceutical compounds of the present disclosure against the in vitro proliferation of U87MG cells (Cell Bank, Chinese Academy of Sciences, Cat #TCHu138) and SK-BR-3 tumor cells (human breast cancer cells, ATCC, Cat #HTB-30). The cells were treated in vitro with a compound at different concentrations. After 6 days of culture, the proliferation of cells was tested using CTG (CellTiter-Glo® Luminescent Cell Viability Assay, Promega, Cat #G7573) reagents, and the in vitro activity of the compound was evaluated according to IC50 value.
(§2) The test for the inhibition of the in vitro proliferation of U87MG cells was taken as an example to illustrate the method of the present invention for testing the inhibitory activity of the compounds of the present invention against the in vitro proliferation of tumor cells. […]
(§3) Different test samples at 100 nM or 5 μM (100 μL) were added to the first column of a 96-well plate, and 100 μL of PBS was added to each well of the second column through the eleventh column. […] Plate reading: the 96-well cell culture plate was taken out and tested in a microplate reader (BMG labtech, PHERAstar FS) for chemiluminescence. […]
(§4) Data were processed and analyzed using Microsoft Excel and Graphpad Prism 5.

U87MG cells = experiment: Inhibition of in vitro proliferation of U87MG cells (CTG); assay type: cell-based; details: Homo sapiens, U-87 MG, 6 days of culture, read-out: IC50 (nM) U87
Protocol: as §1, §2, §3, §4

[2] = target: T1, human CEACAM1 expressed on CHO cell surface (CEACAM1-CHO) (Homo sapiens, UniProt P13688); experiment: FACS binding assay, CEACAM1-CHO cells
T1 construct: expressed in transfected cells; host or cells: CHO cells
T1 sequence (P13688 35-526): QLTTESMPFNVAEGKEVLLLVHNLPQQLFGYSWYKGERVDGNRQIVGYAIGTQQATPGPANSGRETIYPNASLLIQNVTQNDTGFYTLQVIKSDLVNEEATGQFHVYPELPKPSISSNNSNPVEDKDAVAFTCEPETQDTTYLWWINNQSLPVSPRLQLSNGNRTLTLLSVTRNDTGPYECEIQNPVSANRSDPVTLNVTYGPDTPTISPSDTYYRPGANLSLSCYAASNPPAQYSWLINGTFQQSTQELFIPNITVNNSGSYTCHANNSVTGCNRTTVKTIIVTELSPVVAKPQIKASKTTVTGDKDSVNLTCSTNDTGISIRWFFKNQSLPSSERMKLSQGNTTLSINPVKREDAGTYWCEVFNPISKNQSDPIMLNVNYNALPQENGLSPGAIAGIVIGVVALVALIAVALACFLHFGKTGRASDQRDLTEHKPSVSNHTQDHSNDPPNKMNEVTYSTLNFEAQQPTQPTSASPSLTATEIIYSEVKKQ
Protocol: In order to detect the binding of the antibody to the CEA protein on the cell surface, the binding activity of the antibody was determined by FACS using cells expressing CEA on the cell surface. Cells were harvested and centrifuged at 400 g at 4° C. for 5 min. Pre-cooled PBS containing FBS at final concentration 10% was added, and the mixture was centrifuged at 400 g at 4° C. for 5 min; the procedures were repeated twice. The cells were seeded into a 96-well plate at 10^5 cells/well, and 100 μL of gradient diluted antibody solution was added to each well. The plate was incubated at 4° C. for 60 min and centrifuged, and the supernatant was removed. 250 μL of pre-cooled PBS containing FBS at final concentration 10% was added to each well to resuspend the cells, and the suspension was centrifuged at 400 g at 4° C. for 5 min, followed by the removal of the supernatant; the procedures were repeated twice. 50 μL of 1:200 diluted secondary antibody Alexa Fluor@488 goat anti-human IgG (H+L) (Lifetechologies, Cat #A11013) was added. The plate was incubated in the dark at 4° C. for 45 min and centrifuged, and the supernatant was removed. 250 μL of pre-cooled PBS containing FBS at final concentration 10% was added to each cell to resuspend the cells, and the suspension was centrifuged at 400 g at 4° C. for 5 min; the procedures were repeated twice. 100 μL of pre-cooled PBS was added to each well to resuspend the cells. The plate was analyzed by a flow cytometer (BD, FACSverse) for fluorescence signal values. Higher values indicate higher binding activity of the antibody to the protein on the cell surface. Binding curves were plotted using PRISM analysis software based on the assay results, and the EC50 values for the binding activity of the antibody to the cell surface proteins human CEA (MKN45 human gastric cancer cells, Nanjing Kebai Biotechnology Co., Ltd., Cat #CBP60488), cynoCEA-CHO and CEACAM1-CHO were obtained by fitting.

Molecule: CC[C@@]1(O)C(=O)OCc2c1cc1n(c2=O)Cc2c-1nc1cc(F)c(C)c3c1c2[C@@H](NC(=O)[C@H](O)C1CC1)CC3 [1-B, (R)-2-cyclopropyl-N-((1S,9S)-9-ethyl-5-fluoro-9-hydroxy-4-methyl-10,13-dioxo-2,3,9,10,13,15-hexahydro-1H,12H-benzo[de]pyrano[3′,4′:6,7]indolizino[1,2-b]quinolin-1-yl)-2-hydroxyacetamide]
- IC50 [1]: 0.33 nM
- IC50 (U87MG cells): 0.86 nM

Molecule: Sanofi: the antibody in SAR-408701 (Sanofi), heavy chain SEQ ID NO: 88, light chain SEQ ID NO: 89; positive control [reference compound]
- EC50 (nM) CEACAM1-CHO ([2]; Table 17, humanized antibodies and controls): No binding

Molecule: CC[C@@]1(O)C(=O)OCc2c1cc1n(c2=O)Cc2c-1nc1cc(F)c(C)c3c1c2[C@@H](NC(=O)[C@@H](O)C1CC1)CC3 [1-A, (S)-2-cyclopropyl-N-((1S,9S)-9-ethyl-5-fluoro-9-hydroxy-4-methyl-10,13-dioxo-2,3,9,10,13,15-hexahydro-1H,12H-benzo[de]pyrano[3′,4′:6,7]indolizino[1,2-b]quinolin-1-yl)-2-hydroxyacetamide]
- IC50 [1]: 8.11 nM
- IC50 (U87MG cells): 2.31 nM

B1: mAb103: murine anti-CEA monoclonal antibody, VH SEQ ID NO: 13, VL SEQ ID NO: 14 (antibody, V domains shown)
VH: QIQLVQSGPELKKPGETVKISCKASGYTFTTYGVIWVKQAPGKGLKWMGWINTYSGVPTYADDFKGRFAFSLETSASTAFLQINNLKNEDTATYFCARKKTLTTVTPWFAYWGQGTLVTVSA
VL: DLVVTQSSSASFSLGASAKLTCTLSSQHSTYTIEWYQQQPLKPPKYVMELKKDGSHSTGDGIPDRFSGSSSGADRYLTISNIQPEDEAIYICGVGNTIKEQFVYVFGGGTKVTVL
- EC50 (nM) CEACAM1-CHO ([2]; Table 1, murine antibodies): No binding

B2: mAb63: murine anti-CEA monoclonal antibody, VH SEQ ID NO: 9, VL SEQ ID NO: 10 (antibody, V domains shown)
VH: EVQLQQSGPELVKPGASVKMSCKASGYTFTDFYMNWVRQSHGKSLEWIGDIFPKNGNTDYNRKFKDKATLTVDKSSNTVYMEFRSLTLEDSAIYFCARSGYGNYVFDYWGQGTIFTVSS
VL: DVQMTQTPSALSASLGDRVTISCRTSQDINIYLNWYQQKPDGTVKLLIYYRSGLLSGVPSRFSGSGSGTDYSLTISNLEPEDIATYFCQQGNTLPPTFGGGTKLEIK
- EC50 (nM) CEACAM1-CHO ([2]; Table 1, murine antibodies): No binding

B3: mAb67: murine anti-CEA monoclonal antibody, VH SEQ ID NO: 11, VL SEQ ID NO: 12 (antibody, V domains shown)
VH: EVQLQQSGPELVKPGASVKIYCKASGYTFTDYHMNWVKQSHGKSLEWIGDINPDIGGTSYNQNFKGKATLTVDKSSSTAYMELRSLTSEDSAVYYCSRWDFDSFANWGQGTLVTVSA
VL: DIVMTQSPASLAMSLGKRATISCRASESVSIIGTNLIHWYQQKPGQPPKLLIYHASNLETGVPARFSGSGSGADFTLTIDPVEGDDVALYYCLQSRKIPYTFGGGTKMEIK
- EC50 (nM) CEACAM1-CHO ([2]; Table 1, murine antibodies): No binding
